Measurements reported in patent publication US20150299648A1, “IMPROVED CULTIVATION MEDIA AND PROCESS FOR IMPROVED PROTEIN PRODUCTION BY PICHIA STRAINS” (priority 2012, published 2015).
Entries after “also recorded” stand apart in the source; their conditions may differ.

Experiments:
[1] = Osmolality of sugar and sugar alcohol solutions (osmometer); type: physicochemical; conditions: 500 mM in water
Protocol: The sugar and sugar alcohol solutions used as osmoprotectant supplements were prepared at 500 mM in water and their osmolalities were measured using Osmometer (Multi-somotte, Model 2430, Precision Systems Inc, MA, USA). The osmolality of solution was directly proportional to the concentration of component in solution. For instance there was a linear relationship between sorbitol concentration (mM) and osmolality of the solution (mOsm/kg) as shown in FIG. 1A. The osmolalities of maltitol, sorbitol, glycerol, and glucose at 500 mM in water were 590±4, 544±3, 541±3, and 568±0 mOsm/kg respectively (FIG. 1B). The osmolaties of sorbose, mellibiose, ribose, quinic acid and myo-inositol at 500 Mm in water were (480±5), (500±5), (470±5), (480±5) AND (510±10), respectively.

[2] = system: glycoengineered P. pastoris (YGLY13979) strain producing a monoclonal antibody; assay: Effect of maltitol and Mix2 supplements on fed-batch fermentation profile; type: cell-based, Pichia pastoris; conditions: for Cell lysis: methanol induction phase
Protocol: The osmoprotective effect of maltitol (50 g/L) in combination with a supplement comprising a mixture of nutrients (Mix2) consisting of amino acid (AA1), vitamins (Vit4), trace metal ions (TM4), and basal salts (BSM2) as described in Table 2 was also evaluated using a glycoengineered P. pastoris (YGLY13979) strain producing a monoclonal antibody was cultivated in 1 L bioreactors (Biostat Q-plus, Satorius, Germany).
A P. pastoris YGLY13979 producing a monoclonal antibody was cultivated in 1 L bioreactors (Biostat Q-plus, Satorius, Germany). For fermentation in 1 L bioreactor, a vial (1 mL) of RCB (Research Cell Bank) was inoculated into 200 mL of BSGY medium in 1 L-baffled flask. The culture incubated at 24° C., while shaking on an orbital shaker at 180 rpm for 48±4 h. The bioreactor was inoculated with a 10% volumetric ratio of seed to initial BSGY medium. Cultivation conditions were following: temperature set at 24±0.5° C., pH controlled at 6.5±0.1 with 30% ammonium hydroxide, dissolved oxygen was maintained at 20% of saturation by cascading agitation rate on the addition of pure oxygen to the fixed airflow rate of 0.7 vvm. The fermentation profile of the production strain was examined using four different cultivation conditions after batch phase.
For the control, a 50% glycerol solution containing 12.5 mL/L of PTM1 salts (6.5 g FeSO4.7H2O, 2.0 g ZnCl2, 0.6 g CuSO4.5H2O, 3.0 g MnSO4.7H2O, 0.5 g CoCl2.6H2O, 0.2 g NaMoO4.2H2O, 0.2 g biotin, 80 mg NaI, 20 mg H3BO4 per L) was fed constantly at an initial rate of 0.08 h^−1 for 8 h After depletion of the initial glycerol (4%).
For Mix2, 10 mL AA1, 4 mL Vit4, 4 mL TM4, and 4 mL BSM2 were mixed with 62.5 mL of 80% glycerol and 15.5 mL of water. The Mix2 solution was fed during the glycerol fed-batch period instead of regular glycerol solution, which was used for the control.
For Maltitol, 43.5 mL of 80% matitol solution was added into bioreactor to achieve 50 g/L concentration at the end of glycerol fed-batch phase.
For Maltitol+Mix2, two conditions of Maltitol and Mix2 were combined.
Induction was initiated after a 30 min starvation phase when methanol was fed. Methanol containing 12.5 mL/L of PTM1 salts (6.5 g FeSO4.7H2O, 2.0 g ZnCl2, 0.6 g CuSO4.5H2O, 3.0 g MnSO4.7H2O, 0.5 g CoCl2.6H2O, 0.2 g NaMoO4.2H2O, 0.2 g biotin, 80 mg NaI, 20 mg H3BO4 per L) was fed constantly starting at 1.33 g/L/h under methanol limited condition. Agitation speed was changed from cascade mode with agitation speed and pure oxygen.

[3] = system: P. pastoris strain (YGLY27893) which produces an antibody Fc-fragment; assay: Effect of maltitol with or without sorbitol on cell robustness; type: cell-based, Pichia pastoris; conditions: BSGY medium with maltitol 50 g/L
Protocol: Using a P. pastoris strain (YGLY27893) which produces an antibody Fc-fragment, the osmoprotective effect of combining sorbitol and maltitol was tested as follows: sorbitol(−) maltitol(−); sorbito(+) maltitol(−); […] maltito(+). The concentrations of sorbitol and maltitol were 18 g/L and 50 g/L respectivetly. (Note: Sorbitol(+) maltito(−) is identical to BSGY medium).
The cell growth was expressed as [Cell (t)]/[Cell (0)]×100(%), here, [Cell (t)] is the wet cell weight at t (h) of induction and [Cell (0)] is the wet cell weight at 0 (h) of induction, because the cell density at the beginning of induction in each case was different due to absence or presence of sorbitol as a fermentable sugar. The cell was heavily lysed around 80 h of induction in BSGY medium without maltitol, whereas the cell was continuously grown for 150 h of induction in BSGY medium with maltitol (FIG. 4). I re-draw the FIG. 4 as shown in the last page (p 47 after FIG. 5).

[4] = system: P. pastoris YGLY 21058 strain; assay: Fermentability of sorbitol and maltitol determined by HPLC; type: cell-based, Pichia pastoris; conditions: BSGY; maltitol 50 g/L; methanol induction phase
Protocol: The P. pastoris YGLY 21058 strain was cultivated in 1 L bioreactor and 50 g/L of maltitol was mixed in BSGY medium. The samples were taken at the beginning of fermentation, at the end of glycerol fed-batch before adding maltitol, and two different time-points in methanol induction phase, as shown in FIG. 3. The supernatant was separated by the centrifugation at 13,000 rpm for 1 minutes using micro-centrifuge. The samples properly diluted with distilled water were filtered using 0.2 μm-filter and the residual concentrations of sorbitol and maltitol were determined by HPLC using AMINEX HPX-87H column. The residence times (RTs) for sorbitol and maltitol were 11.5 and 9.3 min respectively. The data were shown in FIG. 3 as two independent runs of cultivation.

OC[C@@H](O)[C@@H](O[C@H]1O[C@H](CO)[C@@H](O)[C@H](O)[C@H]1O)[C@H](O)[C@@H](O)CO [Maltitol, 4-O-α-glucopyranosyl-D-sorbitol]
Osmolality of solution [1]: 590±4 mOsm/kg
Increase of maximum titer of anti-Her2 monoclonal antibody over control culture ([2]; 5% maltitol, 600 mOsm/kg in induction phase): 120%
Cell lysis ([2]; vs BSGY control): reduced the cell lysis significantly
Cell lysis ([2]; vs BSGY control, listed as maltitol): significantly reduced
Effective range of concentration in BSGY medium ([2]; to increase and maintain osmolality during induction phase): higher than 25 g/L
Cell yield ([2]; vs BSGY control): slight reduction of cell yield
Time of continuous cell growth in induction [3]: 150 h
Consumption / fermentability in fed-batch fermentation (residual concentration by HPLC) [4]: not consumed; also recorded: non-fermentable
